Data from ChEMBL document CHEMBL3864146, “5-Alkyloxytryptamines are membrane-targeting, broad-spectrum antibiotics” (Bioorg Med Chem Lett, 2016).

Assays:
Escherichia coli [1] = assay: Antibacterial activity against Escherichia coli BW25113 after 16 to 18 hrs by micro-dilution method; assay type: functional
Escherichia coli [2] = assay: Antibacterial activity against tolC-deficient Escherichia coli BW25113 after 16 to 18 hrs by micro-dilution method; assay type: functional
Bacillus subtilis = assay: Antibacterial activity against Bacillus subtilis 168 after 16 to 18 hrs by micro-dilution method; assay type: functional; conditions: subsp. subtilis str. 168
Pseudomonas aeruginosa [3] = assay: Antibacterial activity against Pseudomonas aeruginosa after 16 to 18 hrs by micro-dilution method; assay type: functional
Salmonella typhimurium [4] = assay: Antibacterial activity against Salmonella typhimurium after 16 to 18 hrs by micro-dilution method; assay type: functional, Salmonella enterica subsp. enterica serovar Typhimurium; conditions: Salmonella enterica
Vibrio cholerae = assay: Antibacterial activity against Vibrio cholerae after 16 to 18 hrs by micro-dilution method; assay type: functional
Shigella boydii = assay: Antibacterial activity against Shigella boydii after 16 to 18 hrs by micro-dilution method; assay type: functional
Klebsiella pneumoniae [5] = assay: Antibacterial activity against Klebsiella pneumoniae after 16 to 18 hrs by micro-dilution method; assay type: functional
Klebsiella aerogenes = assay: Antibacterial activity against Enterobacter aerogenes after 16 to 18 hrs by micro-dilution method; assay type: functional
Acinetobacter baumannii [6] = assay: Antibacterial activity against Acinetobacter baumannii after 16 to 18 hrs by micro-dilution method; assay type: functional
Edwardsiella tarda = assay: Antibacterial activity against Edwardsiella tarda after 16 to 18 hrs by micro-dilution method; assay type: functional
Morganella morganii = assay: Antibacterial activity against Morganella morganii after 16 to 18 hrs by micro-dilution method; assay type: functional
Staphylococcus aureus [7] = assay: Antibacterial activity against Staphylococcus aureus after 16 to 18 hrs by micro-dilution method; assay type: functional
Escherichia coli [8] = assay: Induction of membrane permeabilization in Escherichia coli BW25113 at MIC after 15 mins by propidium iodide staining-based fluorescence microplate reader method relative to 50% ethanol; assay type: functional
Escherichia coli [9] = assay: Adjuvant activity assessed as potentiation of chloramphenicol-induced antibacterial activity against Escherichia coli BW25113 at 0.5 times MIC after 16 to 18 hrs by checkerboard assay (reference value: 8 ng/ml); assay type: functional
Escherichia coli [10] = assay: Adjuvant activity assessed as potentiation of chloramphenicol-induced antibacterial activity against Escherichia coli BW25113 at 0.25 times MIC after 16 to 18 hrs by checkerboard assay (reference value: 8 ng/ml); assay type: functional
Escherichia coli [11] = assay: Adjuvant activity assessed as potentiation of tetracycline-induced antibacterial activity against Escherichia coli BW25113 at 0.5 times MIC after 16 to 18 hrs by checkerboard assay (reference value: 2 ng/ml); assay type: functional
Escherichia coli [12] = assay: Adjuvant activity assessed as potentiation of tetracycline-induced antibacterial activity against Escherichia coli BW25113 at 0.25 times MIC after 16 to 18 hrs by checkerboard assay (reference value: 2 ng/ml); assay type: functional
Escherichia coli [13] = assay: Adjuvant activity assessed as potentiation of ciprofloxacin-induced antibacterial activity against Escherichia coli BW25113 at 0.5 times MIC after 16 to 18 hrs by checkerboard assay (reference value: 13 ng/ml); assay type: functional
Escherichia coli [14] = assay: Adjuvant activity assessed as potentiation of ciprofloxacin-induced antibacterial activity against Escherichia coli BW25113 at 0.25 times MIC after 16 to 18 hrs by checkerboard assay (reference value: 13 ng/ml); assay type: functional
Escherichia coli [15] = assay: Adjuvant activity assessed as potentiation of rifampicin-induced antibacterial activity against Escherichia coli BW25113 at 0.5 times MIC after 16 to 18 hrs by checkerboard assay (reference value: 8 ng/ml); assay type: functional
Escherichia coli [16] = assay: Adjuvant activity assessed as potentiation of rifampicin-induced antibacterial activity against Escherichia coli BW25113 at 0.25 times MIC after 16 to 18 hrs by checkerboard assay (reference value: 8 ng/ml); assay type: functional
Salmonella typhimurium [17] = assay: Adjuvant activity assessed as potentiation of rifampicin-induced antibacterial activity against Salmonella typhimurium at 21 ug/ml after 16 to 18 hrs by checkerboard assay (reference value: 8 ug/ml); assay type: functional, Salmonella enterica subsp. enterica serovar Typhimurium; conditions: Salmonella enterica
Acinetobacter baumannii [18] = assay: Adjuvant activity assessed as potentiation of rifampicin-induced antibacterial activity against Acinetobacter baumannii at 21 ug/ml after 16 to 18 hrs by checkerboard assay (reference value: 2 ug/ml); assay type: functional
Pseudomonas aeruginosa [19] = assay: Adjuvant activity assessed as potentiation of rifampicin-induced antibacterial activity against Pseudomonas aeruginosa at 21 ug/ml after 16 to 18 hrs by checkerboard assay (reference value: 16 ug/ml); assay type: functional
Klebsiella pneumoniae [20] = assay: Adjuvant activity assessed as potentiation of rifampicin-induced antibacterial activity against Klebsiella pneumoniae at 21 ug/ml after 16 to 18 hrs by checkerboard assay (reference value: 16 ug/ml); assay type: functional
Staphylococcus aureus [21] = assay: Adjuvant activity assessed as potentiation of rifampicin-induced antibacterial activity against Staphylococcus aureus at 21 ug/ml after 16 to 18 hrs by checkerboard assay (reference value: 0.004 ug/ml); assay type: functional
[22] = Cytotoxicity against HEK cells assessed as cell viability at 21 ug/ml after 24 hrs by CellTiter-Glo assay relative to control; assay type: toxicity, cell-based, HEK293; conditions: human, read-out: Activity
[23] = Cytotoxicity against HEK cells assessed as cell viability at 10.5 ug/ml after 24 hrs by CellTiter-Glo assay relative to control; assay type: toxicity, cell-based, HEK293; conditions: human, read-out: Activity
[24] = Cytotoxicity against HEK cells assessed as cell viability at 5.3 ug/ml after 24 hrs by CellTiter-Glo assay relative to control; assay type: toxicity, cell-based, HEK293; conditions: human, read-out: Activity
[25] = Cytotoxicity against HEK cells assessed as cell viability at 21 ug/ml after 48 hrs by CellTiter-Glo assay relative to control; assay type: toxicity, cell-based, HEK293; conditions: human, read-out: Activity
[26] = Cytotoxicity against HEK cells assessed as cell viability at 10.5 ug/ml after 48 hrs by CellTiter-Glo assay relative to control; assay type: toxicity, cell-based, HEK293; conditions: human, read-out: Activity
[27] = Cytotoxicity against HEK cells assessed as cell viability at 5.3 ug/ml after 48 hrs by CellTiter-Glo assay relative to control; assay type: toxicity, cell-based, HEK293; conditions: human, read-out: Activity

CCCCCCOc1ccc2[nH]cc(CCN)c2c1.Cl
MIC (Escherichia coli [1]): 42 µg/mL
MIC (Escherichia coli [2]): 42 µg/mL
MIC (Bacillus subtilis): 42 µg/mL
MIC (Pseudomonas aeruginosa [3]): > 83 µg/mL
MIC (Salmonella typhimurium [4]): 42 µg/mL
MIC (Vibrio cholerae): 42 µg/mL
MIC (Shigella boydii): 42 µg/mL
MIC (Klebsiella pneumoniae [5]): 42 µg/mL
MIC (Klebsiella aerogenes): 42 µg/mL
MIC (Acinetobacter baumannii [6]): 42 µg/mL
MIC (Edwardsiella tarda): 42 µg/mL
MIC (Morganella morganii): > 83 µg/mL
MIC (Staphylococcus aureus [7]): 42 µg/mL
Activity (Escherichia coli [8]): 34%
MIC (Escherichia coli [9]): 0.004 µg/mL
MIC (Escherichia coli [10]): 0.004 µg/mL
MIC (Escherichia coli [11]): 0.001 µg/mL
MIC (Escherichia coli [12]): 0.002 µg/mL
MIC (Escherichia coli [13]): 0.013 µg/mL
MIC (Escherichia coli [14]): 0.013 µg/mL
MIC (Escherichia coli [15]): 0.001 µg/mL
MIC (Escherichia coli [16]): 0.004 µg/mL
MIC (Salmonella typhimurium [17]): 0.5 µg/mL
MIC (Acinetobacter baumannii [18]): 0.016 µg/mL
MIC (Pseudomonas aeruginosa [19]): 16 µg/mL
MIC (Klebsiella pneumoniae [20]): 8 µg/mL
MIC (Staphylococcus aureus [21]): 0.004 µg/mL
viability at 24 h, 21 ug/ml [22]: 0%
viability at 24 h, 10.5 ug/ml [23]: 0.1%
viability at 24 h, 5.3 ug/ml [24]: 0.4%
viability at 48 h, 21 ug/ml [25]: 0%
viability at 48 h, 10.5 ug/ml [26]: 0%
viability at 48 h, 5.3 ug/ml [27]: 0.1%
